Common to all, as to type: functional, organism-based
For experiment [1], the system named is Influenza A virus. As to the kind of experiment: Antiviral activity against Influenza A virus (A2/Asian/J305) infected in Swiss albino mouse assessed as increase in host survival at 100 mg/kg, ip administered 4 hrs before infection, 1 hr after infection followed by twice daily for next 6 days for total of 14 treatments measured on 21st day post-infection. Details: dose 100 mg/kg.

The test system of experiment [2] is Influenza A virus. As to the kind of experiment: Antiviral activity against Influenza A virus (A2/Asian/J305) infected in Swiss albino mouse assessed as increase in host survival at 25 mg/kg, ip administered 4 hrs before infection, 1 hr after infection followed by twice daily for next 6 days for total of 14 treatments measured on 21st day post-infection. Details: dose 25 mg/kg.

Experiment [3] deals with Influenza A virus. Kind of experiment: Antiviral activity against Influenza A virus (A2/Asian/J305) infected in Swiss albino mouse assessed as increase in host survival at 20 mg/kg, ip administered 4 hrs before infection, 1 hr after infection followed by twice daily for next 6 days for total of 14 treatments measured on 21st day post-infection. Details: dose 20 mg/kg.

Active and inactive are the calls of the source. The rule behind the calls is not given here.

Take `NC(=O)c1nnnn1[C@@H]1O[C@H](CO)[C@@H](O)[C@H]1O`: the result in the experiment on Influenza A virus [1] was inactive.

For `NC(=O)Cc1nnnn1[C@@H]1O[C@H](CO)[C@@H](O)[C@H]1O`, in the experiment with Influenza A virus [2], the outcome was inactive.

Take `OC[C@H]1O[C@@H](n2cnnn2)[C@H](O)[C@@H]1O`: the result in the experiment on Influenza A virus [1] was inactive.

Regarding `NC(=O)c1ncn([C@@H]2O[C@H](CO)[C@@H](O)[C@H]2O)n1`, the result in the experiment on Influenza A virus [3] was Active.
